One test addresses T1, Myostatin (Homo sapiens, UniProt O14793).
T1 construct: active myostatin (also called mature myostatin) is a homodimer consisting of two C-terminal growth factor domains; purchased R&D systems 788-G8/CF
T1 sequence (O14793 267-375): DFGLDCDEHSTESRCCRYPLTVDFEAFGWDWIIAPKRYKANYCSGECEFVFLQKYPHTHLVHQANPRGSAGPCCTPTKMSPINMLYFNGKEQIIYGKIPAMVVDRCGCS
In words: HepG2 reporter gene assay, Evaluation Procedure (2): 2-concentrations assay, myostatin inhibition. It counts as cell-based. Put shortly: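 Myostatin inhibition was measured in a luciferase reporter assay using HepG2 cells transfected with a pGL3 vector containing 12 CAGA repeats upstream of luciferase. After 20 to 24 hours with 10 ng/mL myostatin, cells received One-Glo:PBS (1:1) at 100 µL/well, were shaken for 5 min, and 20 µL/well was moved to 384-well plates and read on an Envision 2104.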

The next test deals with T2, GDF-11 (Homo sapiens, UniProt O95390).
T2 construct: purchased R&D systems 1958-GD-G8/CF
T2 sequence (O95390 299-407): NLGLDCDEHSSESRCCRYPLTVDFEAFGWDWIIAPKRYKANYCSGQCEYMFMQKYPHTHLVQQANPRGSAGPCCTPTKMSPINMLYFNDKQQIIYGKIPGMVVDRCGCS
In words: HepG2 reporter gene assay, Evaluation Procedure (2): 2-concentrations assay, GDF-11 inhibition. It counts as cell-based. Put shortly:
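HepG2 cells carrying the transfected pGL3(CAGA)12-luc reporter, a pGL3 vector with luciferase placed downstream of 12 CAGA repeats, were stimulated with GDF-11 at a final 10 ng/mL together with test peptide. Blank wells received no GDF-11 and no peptide. Plates were incubated 20 to 24 hours at 37°C with 5% CO2. Luminescence from One-Glo substrate was read to calculate percent inhibition.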
On the technique in general: In a reporter assay the amount or activity of a reporter protein is the signal.

Setting [1] is: HepG2, read-out: inhibition rate (myostatin inhibition assay).
The mark [2] stands for this setting: peptide 30nM, Myostatin 10 ng/mL, HepG2, read-out: Myostatin Inhibition 30nM.
Setting [3] is: peptide 100nM, Myostatin 10 ng/mL, HepG2, read-out: Myostatin Inhibition 100nM.
[4] abbreviates: HepG2, peptide 30nM, GDF-11 10 ng/mL, read-out: GDF11 Inhibition 30nM.
The mark [5] stands for this setting: HepG2, peptide 100nM, GDF-11 10 ng/mL, read-out: GDF11 Inhibition 100nM.

Read-outs that look alike come from different tables or passages of the source. Starred links: 1 amine or outer side, 2 acyl side, 3 side chain; linkers in the order of their positions; H or OH if unused. Positions of bridges follow the written chain, without caps; N, C: chain ends. Non-standard residues stand in square brackets, D forms with d. Residues, ends and D or L forms follow the SMILES beside them. Groups on a side chain read outwards from the residue. *: point of attachment. X4 = CN(C)C(=O)Cn1cc(-c2ccc(C[C@H](N[*:1])C(=O)[*:2])cc2)cn1; X11 = O=C([C@H](Cc1ccc(-c2ccccc2Cl)cc1)N[*:1])[*:2]; X15 = O=C([C@H](Cc1ccc(-c2ccccn2)cc1)N[*:1])[*:2]; Phe(4-COOH) = N[C@@H](Cc1ccc(C(=O)O)cc1)C(=O)O; Tyr(Ph) = N[C@@H](Cc1ccc(Oc2ccccc2)cc1)C(=O)O; Piperazinyl(4-CH2COOH) = O=C(O)CN1CCN(*)CC1; Gly(N(CH2)3COOH) = O=C(O)CCCNCC(=O)O; X1 = CCCCCCC[C@H](N[*:1])C(=O)[*:2]; X7 = COCCCCC[C@H](N[*:1])C(=O)[*:2]; NMeCha = CN[C@@H](CC1CCCCC1)C(=O)O; NMeF = CN[C@@H](Cc1ccccc1)C(=O)O; 4Pal = N[C@@H](Cc1ccncc1)C(=O)O; NMeE = CN[C@@H](CCC(=O)O)C(=O)O; Cha = N[C@@H](CC1CCCCC1)C(=O)O; Carboxymethyl = O=C(O)C*; NMeA = CN[C@@H](C)C(=O)O; CO = O=C([*:1])[*:2]; Sar = CNCC(=O)O

In the case of `CCCCCCC[C@@H]1NC(=O)[C@H](Cc2ccccc2)N(C)C(=O)[C@H](CCCNC(=N)N)NC(=O)[C@H](Cc2ccc(C(=O)O)cc2)NC(=O)[C@H](Cc2ccc(-c3ccccc3Cl)cc2)NC(=O)[C@H](C)N(C)C(=O)[C@H]([C@@H](C)CC)NC(=O)[C@H](Cc2ccccc2)N(C)C(=O)[C@H](Cc2ccc(O)cc2)NC(=O)[C@H](Cc2ccc(-c3cnn(CC(=O)N(C)C)c3)cc2)NC(=O)[C@H](C)NC(=O)CN(CCCC(=O)O)C(=O)CSC[C@H](C(=O)O)NC(=O)[C@H](Cc2ccccc2)N(C)C(=O)[C@H](CCC(=O)O)N(C)C1=O` [Myostatin_99_v321] ({CH2CO}-[Gly(N(CH2)3COOH)]A[X4]Y[NMeF]I[NMeA][X11][Phe(4-COOH)]R[NMeF][X1][NMeE][NMeF][dC]-OH; thioether N-15), on Myostatin (setting [1]), the inhibition at 0.03 µM was determined as 58% and the inhibition at 0.1 µM came to 91%. Also, at GDF-11 (HepG2, read-out: inhibition rate (GDF-11 inhibition assay), Table 7-3/7-4, GDF-11 10 ng/mL, peptide at the higher of the 2 concentrations), the inhibition came to 0%. For the same compound, the inhibition on GDF-11 (HepG2, read-out: inhibition rate (GDF-11 inhibition assay), Table 7-3/7-4, GDF-11 10 ng/mL, peptide at the lower of the 2 concentrations) was determined as 0%.

In the case of `CC[C@H](C)[C@@H]1NC(=O)[C@H](Cc2ccccc2)N(C)C(=O)[C@H](Cc2ccc(O)cc2)NC(=O)[C@H](Cc2c[nH]c3ccccc23)NC(=O)[C@H](C)NC(=O)CN(CCCC(=O)O)C(=O)CSC[C@H](C(=O)O)NC(=O)[C@H](Cc2ccccc2)N(C)C(=O)[C@H](C)N(C)C(=O)[C@H](CCCCCOC)NC(=O)[C@H](Cc2ccccc2)N(C)C(=O)[C@H](CCCNC(=N)N)NC(=O)[C@H](Cc2ccc(C(=O)O)cc2)NC(=O)[C@H](Cc2ccncc2)NC(=O)CN(C)C1=O` [Myostatin_99_v228] ({CH2CO}-[Gly(N(CH2)3COOH)]AWY[NMeF]I[Sar][4Pal][Phe(4-COOH)]R[NMeF][X7][NMeA][NMeF][dC]-OH; thioether N-15), the inhibition at 0.03 µM on Myostatin (setting [2]) came to 19%; at GDF-11 (setting [4]) it was 4%. In addition, the values for the inhibition at 0.1 µM at Myostatin (setting [3]) and on GDF-11 (setting [5]) were 60% and 0%, respectively.

Regarding `CCCCCCC[C@@H]1NC(=O)[C@H](CC2CCCCC2)NC(=O)[C@H](CCCNC(=N)N)NC(=O)[C@H](Cc2ccc(C(=O)O)cc2)NC(=O)[C@H](CCCCNC(=O)N2CCN(CC(=O)O)CC2)NC(=O)[C@H]2CCCN2C(=O)[C@H]([C@@H](C)CC)NC(=O)[C@H](CC2CCCCC2)N(C)C(=O)[C@H](Cc2ccc(O)cc2)NC(=O)[C@H](Cc2ccc(-c3cnn(CC(=O)N(C)C)c3)cc2)NC(=O)[C@@H](CCC(=O)O)NC(=O)[C@H](C)NC(=O)CSC[C@H](C(=O)N2CCN(CC(=O)O)CC2)NC(=O)[C@H](Cc2ccccc2)N(C)C(=O)[C@H](C)N(C)C1=O` [Myostatin_99_v256] ({CH2CO}-A[dE][X4]Y[NMeCha]I[dP]K([CO-Piperazinyl(4-CH2COOH)])[Phe(4-COOH)]R[Cha][X1][NMeA][NMeF][dC]-{Piperazinyl(4-CH2COOH)}; thioether N-15), the inhibition at 0.03 µM on Myostatin (HepG2, read-out: Myostatin Inhibition 30nM) is 57%; at GDF-11 (HepG2, read-out: GDF11 Inhibition 30nM, peptide 30nM, GDF-11 10 ng/mL) it was 0%. For the same compound, the inhibition at 0.1 µM stood at 88% on Myostatin (HepG2, read-out: Myostatin Inhibition 100nM) and 4% at GDF-11 (HepG2, read-out: GDF11 Inhibition 100nM, peptide 100nM, GDF-11 10 ng/mL).

Consider `CC[C@H](C)[C@@H]1NC(=O)[C@H](Cc2ccccc2)N(C)C(=O)[C@H](Cc2ccc(Oc3ccccc3)cc2)NC(=O)[C@H](Cc2ccc(-c3ccccn3)cc2)NC(=O)[C@H](C)NC(=O)CN(CCCC(=O)O)C(=O)CSC[C@H](C(=O)O)NC(=O)[C@H](Cc2ccccc2)N(C)C(=O)[C@H](C)N(C)C(=O)[C@H](CC(C)C)NC(=O)[C@H](Cc2ccccc2)N(C)C(=O)[C@H](CCCNC(=N)N)NC(=O)[C@H](Cc2ccc(OCC(=O)O)cc2)NC(=O)[C@H](Cc2ccccc2)NC(=O)CN(C)C1=O` [Myostatin_99_v60] ({CH2CO}-[Gly(N(CH2)3COOH)]A[X15][Tyr(Ph)][NMeF]I[Sar]FY(Carboxymethyl)R[NMeF]L[NMeA][NMeF][dC]-OH; thioether N-15), for which the inhibition at 0.03 µM came to 25% on Myostatin (setting [2]) and 7% at GDF-11 (setting [4]). For the same compound, the inhibition at 0.1 µM on Myostatin (setting [3]) was 51%; on GDF-11 (setting [5]) it was 5%.

The record behind these values is EP4786487A1, “PEPTIDE” (Peptidream Inc, priority 2023, dated 2025).
